Data: patent US12643912B2, “Macrocyclic compounds, a process for their preparation and pharmaceutical compositions containing them” (LES LABORATOIRES SERVIER, priority 2020, dated 2026)
Read-outs that look alike come from different tables or passages of the source.

How the values were obtained:
Keap1 (A321-C624) (h) = target: T1, Keap1 (A321-C624) (h) (Homo sapiens, UniProt Q14145); assay: Surface Plasmon Resonance binding assay to Kelch domain of KEAP1; conditions: Biacore T200, 25° C., immobilized His-Thromb-KEAP1(A321-C624), single cycle kinetics, KD=kd/ka from 1:1 fit; read-out: Keap1 (A321-C624) (h) direct/SPR (KD)
T1 construct: His-Thromb-KEAP1(A321-C624) acquired from Novalix (batch PU-P01) was immobilized covalently by amine coupling; His tag (N); thrombin cleavage site (Thromb) (N); purchased Novalix batch PU-P01
T1 sequence (Q14145 321-624): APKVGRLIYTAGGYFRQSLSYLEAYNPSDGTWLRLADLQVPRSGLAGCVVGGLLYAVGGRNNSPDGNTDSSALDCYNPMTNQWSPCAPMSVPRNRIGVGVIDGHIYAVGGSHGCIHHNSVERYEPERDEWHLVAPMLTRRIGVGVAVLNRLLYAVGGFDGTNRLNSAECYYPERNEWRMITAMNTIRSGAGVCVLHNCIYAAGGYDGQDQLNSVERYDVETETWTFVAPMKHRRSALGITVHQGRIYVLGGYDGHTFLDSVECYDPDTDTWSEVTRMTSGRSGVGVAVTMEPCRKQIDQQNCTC
Outline: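 His-Thromb-KEAP1(A321-C624) amine-coupled on CM5 chip to 1250 RU; amine blank reference. Run at 25° C in HEPES pH 7.4, 150 mM NaCl, 3 mM EDTA, 1 mM TCEP, 0.05% P20, 5% DMSO; 180 s association, 720 s dissociation, 50 μL/min. KD = kd/ka from 1:1 kinetic fit, double-referenced, DMSO solvent-corrected.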

[1] = system: Nrf2 (Keap1-NRF2 nuclear translocation); assay: U2OS translocation assay (PathHunter U2OS Keap1-NRF2 Nuclear Translocation Cell Line); assay type: cell-based
Outline: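 PathHunter U2OS line expressing Nrf2-enzyme-donor fusion and nuclear acceptor enzyme, 7 500 cells/well in Opti-MEM, 1% FBS. Compounds incubated 3 h at 37° C. Luminescence after 60 min with detection reagent, normalized between 1% DMSO and 10 μM andrographolide.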

[2] = read-out: CELLULAR U2OS EC50, U2OS Keap1-NRF2 nuclear translocation cells, 3 h incubation, luminescence, normalized between 1% DMSO and 10 μM andrographolide
[3] = Homo sapiens, U2OS, 3 h, read-out: CELLULAR U2OS EC50 (nM), U2OS Keap1-NRF2 nuclear translocation cells, 3 h incubation, luminescence, normalized between 1% DMSO and 10 μM andrographolide

Compound	Kd (Keap1 (A321-C624) (h)) [nM]	EC50 [1, 2] [nM]	EC50 [1, 3] [nM]
Cc1c(F)cc2cc1CN1Cc3cc(ccc3OS1(=O)=O)OCCCCn1nnc3c(C)c(ccc31)C2CC(=O)O (single isomer, unassigned) [Example 18b, [5-Fluoro-4,31-dimethyl-27,27-dioxo-21,26-dioxa-27λ^6-thia-1,14,15,16-tetraazahexacyclo[20.5.3.1^3,70.1^9,130.0^12,160.0^25,29]dotriaconta-3(32),4,6,9(31),10,12,14,22,24,29-decaen-8-yl]acetic acid]	1.01	91.3	–
Cc1ccc2cc1[C@@H](C)N1Cc3cc(ccc3OS1(=O)=O)OCCOCCCn1nnc3c(C)c(ccc31)[C@@H]2CC(=O)O [Example 26b, [(2R,8R)-2,4,33-trimethyl-29,29-dioxo-20,23,28-trioxa-29λ^6-thia-1,14,15,16-tetraazahexacyclo[22.5.3.1^3,70.1^9,130.0^12,160.0^27,31]tetratriaconta-3(34),4,6,9(33),10,12,14,24,26,31-decaen-8-yl]acetic acid]	12.2	–	88.8
Cc1ccc2cc1CN1Cc3c(ccc(c3Cl)OCCCCn3nnc4c(C)c(ccc43)C2CC(=O)O)OS1(=O)=O (single isomer, unassigned) [Example 66b, [30-Chloro-4,31-dimethyl-27,27-dioxo-21,26-dioxa-27λ^6-thia-1,14,15,16-tetraazahexacyclo[20.5.3.1^3,70.1^9,130.0^12,160.0^25,29]dotriaconta-3(32),4,6,9(31),10,12,14,22,24,29-decaen-8-yl]acetic acid]	0.833	17.9	–
COc1cc2cc(c1)C(CC(=O)O)c1ccc3c(nnn3CCCCOc3ccc4c(c3)CN(C2)S(=O)(=O)O4)c1C (single isomer, unassigned) [Example 8a, [5-Methoxy-31-methyl-27,27-dioxo-21,26-dioxa-27λ^6-thia-1,14,15,16-tetraazahexacyclo[20.5.3.1^3,70.1^9,130.0^12,160.0^25,29]dotriaconta-3(32),4,6,9(31),10,12,14,22,24,29-decaen-8-yl]acetic acid]	62.2	–	986
Cc1c2ccc3c1nnn3CCCCOc1ccc3c(c1)CN(Cc1cc(cc(C(F)(F)F)c1)C2CC(=O)O)S(=O)(=O)O3 (single isomer, unassigned) [Example 12a, [31-Methyl-27,27-dioxo-5-(trifluoromethyl)-21,26-dioxa-27λ^6-thia-1,14,15,16-tetraazahexacyclo[20.5.3.1^3,70.1^9,130.0^12,160.0^25,29]dotriaconta-3(32),4,6,9(31),10,12,14,22,24,29-decaen-8-yl]acetic acid]	3070	–	3160
Cc1ccc2cc1[C@@H](C)N1Cc3cc(ccc3OS1(=O)=O)OCCCCCn1nnc3c(C)c(ccc31)[C@H]2CC(=O)O [Example 20a, [(2R,8S)-2,4,32-Trimethyl-28,28-dioxo-22,27-dioxa-28λ^6-thia-1,14,15,16-tetraazahexacyclo[21.5.3.1^3,70.1^9,130.0^12,160.0^26,30]tritriaconta-3(33),4,6,9(32),10,12,14,23,25,30-decaen-8-yl]acetic acid]	0.549	–	1.99
Cc1c2ccc3c1nnn3CCCCOc1ccc3c(c1)CN([C@H](C)c1cc(ccc1Cl)[C@@H]2CC(=O)O)S(=O)(=O)O3 [Example 64a, [(2R,8S)-4-chloro-2,31-dimethyl-27,27-dioxo-21,26-dioxa-27λ^6-thia-1,14,15,16-tetraazahexacyclo[20.5.3.1^3,70.1^9,130.0^12,160.0^25,29]dotriaconta-3(32),4,6,9(31),10,12,14,22,24,29-decaen-8-yl]acetic acid]	0.195	–	24
COCCC1CCOc2ccc3c(c2)CN([C@H](C)c2cc(ccc2C)[C@H](CC(=O)O)c2ccc4c(nnn4C1)c2C)S(=O)(=O)O3 (single isomer, unassigned) [Example 24b]	1.23	2.45	–
[2H]C([2H])(C(=O)O)[C@@H]1c2ccc(C)c(c2)CN2Cc3cc(ccc3OS2(=O)=O)OCCCCn2nnc3c(C)c1ccc32 [Example 55a, [(8R)-4,31-Dimethyl-27,27-dioxo-21,26-dioxa-27λ^6-thia-1,14,15,16-tetraazahexacyclo[20.5.3.1^3,70.1^9,130.0^12,160.0^25,29]dotriaconta-3(32),4,6,9(31),10,12,14,22,24,29-decaen-8-yl](^2H2)acetic acid]	2	–	183
COc1ccc2cc1CN1Cc3cc(ccc3OS1(=O)=O)OCCCCn1nnc3c(C)c(ccc31)C2CC(=O)O (single isomer, unassigned) [Example 10b, [4-Methoxy-31-methyl-27,27-dioxo-21,26-dioxa-27λ^6-thia-1,14,15,16-tetraazahexacyclo[20.5.3.1^3,70.1^9,130.0^12,160.0^25,29]dotriaconta-3(32),4,6,9(31),10,12,14,22,24,29-decaen-8-yl]acetic acid]	15.1	369	–
COc1ccc2cc1[C@@H](C)N1Cc3cc(ccc3OS1(=O)=O)OCCCCn1nnc3c(C)c(ccc31)[C@H]2CC(=O)O [Example 28b, [(2R,8S)-4-methoxy-2,31-dimethyl-27,27-dioxo-21,26-dioxa-27λ^6-thia-1,14,15,16-tetraazahexacyclo[20.5.3.1^3,70.1^9,130.0^12,160.0^25,29]dotriaconta-3(32),4,6,9(31),10,12,14,22,24,29-decaen-8-yl]acetic acid]	3.25	–	15.3
Cc1ccc2cc1CN1Cc3c(ccc(c3Cl)OCCCCn3nnc4c(C)c(cc(Cl)c43)[C@@H]2CC(=O)O)OS1(=O)=O [Example 51, [(8R)-11,30-Dichloro-4,31-dimethyl-27,27-dioxo-21,26-dioxa-27λ^6-thia-1,14,15,16-tetraazahexacyclo[20.5.3.1^3,70.1^9,130.0^12,160.0^25,29]dotriaconta-3(32),4,6,9(31),10,12,14,22,24,29-decaen-8-yl]acetic acid]	2.03	–	103
COc1ccc2cc1CN1Cc3cc(ccc3OS1(=O)=O)OCCCCn1nnc3c(C)c(ccc31)C2CC(=O)O (single isomer, unassigned) [Example 10a, [4-Methoxy-31-methyl-27,27-dioxo-21,26-dioxa-27λ^6-thia-1,14,15,16-tetraazahexacyclo[20.5.3.1^3,70.1^9,130.0^12,160.0^25,29]dotriaconta-3(32),4,6,9(31),10,12,14,22,24,29-decaen-8-yl]acetic acid]	3.54	58.1	–
Cc1ccc2cc1CN1Cc3cc(ccc3OS1(=O)=O)OCCCCn1cc(nn1)C(=O)NC2CC(=O)O (single isomer, unassigned) [Example 72a, [4-Methyl-10,25,25-trioxo-19,24-dioxa-25λ^6-thia-1,9,12,13,14-pentaazapentacyclo[18.5.3.1^3,70.1^11,140.0^23,27]triaconta-3(30),4,6,11(29),12,20,22,27-octaen-8-yl]acetic acid]	23.6	–	> 3160
Cc1ccc2cc1CN1Cc3cc(c(Cl)cc3OS1(=O)=O)OCCCCn1nnc3c(C)c(cc(Cl)c31)[C@@H]2CC(=O)O [Example 52, [(8R)-11,23-Dichloro-4,31-dimethyl-27,27-dioxo-21,26-dioxa-27λ^6-thia-1,14,15,16-tetraazahexacyclo[20.5.3.1^3,70.1^9,130.0^12,160.0^25,29]dotriaconta-3(32),4,6,9(31),10,12,14,22,24,29-decaen-8-yl]acetic acid]	8.86	–	180
Cc1ccc2cc1CN1Cc3cc(ccc3OS1(=O)=O)N(C)CCCCn1nnc3c(C)c(ccc31)C2CC(=O)O (stereo not drawn) [Example 42, [4,21,31-Trimethyl-27,27-dioxo-26-oxa-27λ^6-thia-1,14,15,16,21-pentaazahexacyclo[20.5.3.1^3,70.1^9,130.0^12,160.0^25,29]dotriaconta-3(32),4,6,9(31),10,12,14,22,24,29-decaen-8-yl]acetic acid]	1.57	–	21.4
Cc1ccc2cc1[C@@H](C)N1Cc3cc(ccc3OS1(=O)=O)OCCCCCCn1nnc3c(C)c(ccc31)[C@H]2CC(=O)O [Example 19b, [(2R,8S)-2,4,33-trimethyl-29,29-dioxo-23,28-dioxa-29λ^6-thia-1,14,15,16-tetraazahexacyclo[22.5.3.1^3,70.1^9,130.0^12,160.0^27,31]tetratriaconta-3(34),4,6,9(33),10,12,14,24,26,31-decaen-8-yl]acetic acid]	0.646	–	2.76
Cc1ccc2cc1[C@@H](C)N1Cc3cc(ccc3OS1(=O)=O)OCCCCn1nnc3c(C)c(ccc31)[C@@H]2CC(=O)O [Example 3a, [(2R,8R)-2,4,31-Trimethyl-27,27-dioxo-21,26-dioxa-27λ^6-thia-1,14,15,16-tetraazahexacyclo[20.5.3.1^3,70.1^9,130.0^12,160.0^25,29]dotriaconta-3(32),4,6,9(31),10,12,14,22,24,29-decaen-8-yl]acetic acid]	7.64	–	79.5
